According to article PMC8443048 (PLoS Pathogens, 2021):

Target: T1, isocitrate lyase (ICL) (Brucella abortus, UniProt Q2YQA0)
T1 construct: gene BAB1_1631
Conditions: covalent; adduct with Cys185; active site

T1 sequence (Q2YQA0 1-429): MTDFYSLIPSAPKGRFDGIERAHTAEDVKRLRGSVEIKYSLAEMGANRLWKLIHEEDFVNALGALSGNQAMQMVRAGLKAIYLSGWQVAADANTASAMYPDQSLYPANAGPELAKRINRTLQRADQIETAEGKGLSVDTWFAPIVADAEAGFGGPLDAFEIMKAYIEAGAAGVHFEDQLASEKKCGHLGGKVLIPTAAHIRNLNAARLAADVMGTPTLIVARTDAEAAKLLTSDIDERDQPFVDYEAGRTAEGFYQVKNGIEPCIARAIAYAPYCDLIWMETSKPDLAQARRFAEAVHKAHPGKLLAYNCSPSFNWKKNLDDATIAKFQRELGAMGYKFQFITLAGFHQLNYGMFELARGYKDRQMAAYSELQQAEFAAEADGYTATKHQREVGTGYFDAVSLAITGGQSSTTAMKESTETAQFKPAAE

C=C(CC(=O)O)C(=O)O [itaconate]
X-ray crystallography of the complex, 1.8 Å: unambiguously shows a covalent adduct between itaconate and Cys185 in B. abortus isocitrate lyase
